#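 Results reflect a 48-hour exposure of cells in 96-well plates to compound at five concentrations. Abbreviation: GI50, concentration required for 50% inhibition of growth.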 The source made the active and inactive calls. Cut-off read from the data, not from the text of the source: active = GI50 up to about 1.1 µM and inactive = higher. Non-standard residues stand in square brackets, D forms with d. Residues, ends and D or L forms follow the SMILES beside them. ξ: configuration not given here. *: point of attachment. X18 = COC1=CC(=O)N(C(=O)C(O*)C(C)C)C1Cc1ccccc1; ξNMe2Val = CC(C)C(C(=O)*)N(C)C; NMeV = CN[CH](C(=O)O)C(C)C
# Key:
# Experiment in all cases: DTP human tumour cell line panel, 48 h
# 786-0 = test system: 786-0
# A498 = test system: A498
# A549 = test system: A549
# ACHN = test system: ACHN
# BT-549 = test system: BT-549
# CAKI-1 = test system: CAKI-1
# CCRF-CEM = test system: CCRF-CEM
# COLO 205 = test system: COLO 205
# DLD-1 = test system: DLD-1
# DMS-114 = test system: DMS-114
# DMS-273 = test system: DMS-273
# DU-145 = test system: DU-145
# EKVX = test system: EKVX
# HCC 2998 = test system: HCC 2998
# HCT-116 = test system: HCT-116
# HCT-15 = test system: HCT-15
# HL-60 = test system: HL-60
# HOP-18 = test system: HOP-18
# HOP-62 = test system: HOP-62
# HOP-92 = test system: HOP-92
# HT-29 = test system: HT-29
# Hs-578T = test system: Hs-578T
# IGROV-1 = test system: IGROV-1
# K562 = test system: K562
# KM-20L2 = test system: KM-20L2
# KM12 = test system: KM12
# LOX IMVI = test system: LOX IMVI
# LXFL 529 = test system: LXFL 529
# M14 = test system: M14
# M19-MEL = test system: M19-MEL
# MCF7 = test system: MCF7
# MDA-MB-231 = test system: MDA-MB-231
# MDA-MB-435 = test system: MDA-MB-435
# MDA-N = test system: MDA-N
# MOLT-4 = test system: MOLT-4
# Malme-3M = test system: Malme-3M
# NCI-H226 = test system: NCI-H226
# NCI-H23 = test system: NCI-H23
# NCI-H460 = test system: NCI-H460
# NCI-H522 = test system: NCI-H522
# NCI/ADR-RES = test system: NCI/ADR-RES
# OVCAR-3 = test system: OVCAR-3
# OVCAR-4 = test system: OVCAR-4
# OVCAR-5 = test system: OVCAR-5
# OVCAR-8 = test system: OVCAR-8
# PC-3 = test system: PC-3
# RPMI-8226 = test system: RPMI-8226
# RXF 393 = test system: RXF 393
# RXF 631 = test system: RXF 631
# SF-268 = test system: SF-268
# SF-295 = test system: SF-295
# SF-539 = test system: SF-539
# SK-MEL-28 = test system: SK-MEL-28
# SK-MEL-2 = test system: SK-MEL-2
# SK-MEL-5 = test system: SK-MEL-5
# SK-OV-3 = test system: SK-OV-3
# SN12C = test system: SN12C
# SNB-19 = test system: SNB-19
# SNB-75 = test system: SNB-75
# SNB-78 = test system: SNB-78
# SR = test system: SR
# SW-620 = test system: SW-620
# T47D = test system: T47D
# TK-10 = test system: TK-10
# U-251 = test system: U-251
# UACC-257 = test system: UACC-257
# UACC-62 = test system: UACC-62
# UO-31 = test system: UO-31
# XF498 = test system: XF498
compound,measurement,setting,value
COC1=CC(=O)N(C(=O)C(OC(=O)C2CCCN2C(=O)C2CCCN2C(=O)C(C(C)C)N(C)C(=O)C(NC(=O)C(C(C)C)N(C)C)C(C)C)C(C)C)C1Cc1ccccc1 (stereo not drawn) (ξNMe2Val-V[NMeV]PP-X18; configuration not given here),GI50,786-0,2.23 nM (active)
same,GI50,A498,4.24 nM (active)
same,GI50,A549,9.55 nM (active)
same,GI50,ACHN,9.31 nM (active)
same,GI50,BT-549,0.46 nM (active)
same,GI50,CAKI-1,1.03 nM (active)
same,GI50,CCRF-CEM,0.309 nM (active)
same,GI50,COLO 205,1.63 nM (active)
same,GI50,DLD-1,1.08 nM (active)
same,GI50,DMS-114,0.476 nM (active)
same,GI50,DMS-273,1.03 nM (active)
same,GI50,DU-145,0.618 nM (active)
same,GI50,EKVX,2.42 nM (active)
same,GI50,HCC 2998,2.05 nM (active)
same,GI50,HCT-116,0.582 nM (active)
same,GI50,HCT-15,1.4 nM
same,GI50,HL-60,0.171 nM (active)
same,GI50,HOP-18,< 10 nM (active)
same,GI50,HOP-62,4.61 nM (active)
same,GI50,HOP-92,2.94 nM (active)
same,GI50,HT-29,0.573 nM (active)
same,GI50,Hs-578T,0.188 nM (active)
same,GI50,IGROV-1,2.31 nM (active)
same,GI50,K562,0.349 nM (active)
same,GI50,KM-20L2,1.35 nM (active)
same,GI50,KM12,2.38 nM (active)
same,GI50,LOX IMVI,0.849 nM (active)
same,GI50,LXFL 529,1.19 nM (active)
same,GI50,M14,2.7 nM (active)
same,GI50,M19-MEL,3.19 nM (active)
same,GI50,MCF7,0.24 nM (active)
same,GI50,MDA-MB-231,1.46 nM (active)
same,GI50,MDA-MB-435,0.0513 nM (active)
same,GI50,MDA-N,0.0361 nM (active)
same,GI50,MOLT-4,1.02 nM (active)
same,GI50,Malme-3M,2.7 nM (active)
same,GI50,NCI-H226,7.73 nM (active)
same,GI50,NCI-H23,3.15 nM (active)
same,GI50,NCI-H460,1.58 nM (active)
same,GI50,NCI-H522,0.347 nM (active)
same,GI50,NCI/ADR-RES,23.4 nM (active)
same,GI50,OVCAR-3,0.327 nM (active)
same,GI50,OVCAR-4,8.26 nM (active)
same,GI50,OVCAR-5,< 10 nM (active)
same,GI50,OVCAR-8,2.01 nM (active)
same,GI50,PC-3,1.58 nM (active)
same,GI50,RPMI-8226,0.524 nM (active)
same,GI50,RXF 393,1.64 nM (active)
same,GI50,RXF 631,4.59 nM (active)
same,GI50,SF-268,1.89 nM (active)
same,GI50,SF-295,1.61 nM (active)
same,GI50,SF-539,1.35 nM (active)
same,GI50,SK-MEL-28,3.09 nM (active)
same,GI50,SK-MEL-2,0.902 nM (active)
same,GI50,SK-MEL-5,1.09 nM (active)
same,GI50,SK-OV-3,4.85 nM (active)
same,GI50,SN12C,1.88 nM (active)
same,GI50,SNB-19,6.29 nM (active)
same,GI50,SNB-75,1.8 nM (active)
same,GI50,SNB-78,2.44 nM (active)
same,GI50,SR,0.251 nM (active)
same,GI50,SW-620,0.469 nM (active)
same,GI50,T47D,< 10 nM (active)
same,GI50,TK-10,6.82 nM (active)
same,GI50,U-251,2.35 nM (active)
same,GI50,UACC-257,2.5 nM (active)
same,GI50,UACC-62,1.89 nM (active)
same,GI50,UO-31,9.38 nM (active)
same,GI50,XF498,0.308 nM (active)
COC(=O)Nc1nc2cc(C(=O)c3cccs3)ccc2[nH]1 [NOCODAZOLE],GI50,786-0,78.9 nM (active)
same,GI50,A498,19.6 nM (active)
same,GI50,A549,18.6 nM (active)
same,GI50,ACHN,225 nM (active)
same,GI50,BT-549,52.7 nM (active)
same,GI50,CAKI-1,1110 nM (active)
same,GI50,CCRF-CEM,14.5 nM (active)
same,GI50,COLO 205,19.4 nM (active)
same,GI50,DLD-1,34.4 nM (active)
same,GI50,DMS-114,42.4 nM (active)
same,GI50,DMS-273,32.2 nM (active)
same,GI50,EKVX,39.7 nM (active)
same,GI50,HCT-116,15.2 nM (active)
same,GI50,HCT-15,19.8 nM
same,GI50,HL-60,11.3 nM (active)
same,GI50,HOP-18,32800 nM (inactive)
same,GI50,HOP-62,28.7 nM (active)
same,GI50,HOP-92,292 nM (active)
same,GI50,HT-29,14.2 nM (active)
same,GI50,IGROV-1,24.2 nM (active)
same,GI50,K562,< 11.8 nM (active)
same,GI50,KM-20L2,< 13.2 nM (active)
same,GI50,KM12,13.9 nM (active)
same,GI50,LOX IMVI,21.4 nM (active)
same,GI50,LXFL 529,53.2 nM (active)
same,GI50,M14,14 nM (active)
same,GI50,M19-MEL,195 nM (active)
same,GI50,MCF7,42.2 nM (active)
same,GI50,MDA-MB-231,171 nM (active)
same,GI50,MDA-MB-435,11.1 nM (active)
same,GI50,MDA-N,12.4 nM (active)
same,GI50,MOLT-4,20.5 nM (active)
same,GI50,Malme-3M,27.2 nM (active)
same,GI50,NCI-H226,62.5 nM (active)
same,GI50,NCI-H23,16.8 nM (active)
same,GI50,NCI-H460,17.9 nM (active)
same,GI50,OVCAR-4,22300 nM (inactive)
same,GI50,OVCAR-5,20700 nM (inactive)
same,GI50,OVCAR-8,29 nM (active)
same,GI50,PC-3,14.1 nM (active)
same,GI50,RPMI-8226,< 13.2 nM (active)
same,GI50,RXF 393,13.4 nM (active)
same,GI50,RXF 631,70 nM (active)
same,GI50,SF-268,89.3 nM (active)
same,GI50,SF-295,12.8 nM (active)
same,GI50,SK-MEL-28,95.7 nM (active)
same,GI50,SK-MEL-2,< 19.3 nM (active)
same,GI50,SK-OV-3,16.5 nM (active)
same,GI50,SN12C,74 nM (active)
same,GI50,SNB-19,85.7 nM (active)
same,GI50,SNB-78,32.2 nM (active)
same,GI50,SW-620,14.1 nM (active)
same,GI50,T47D,> 80900 nM (inactive)
same,GI50,TK-10,2950 nM (inactive)
same,GI50,U-251,40.3 nM (active)
same,GI50,UACC-257,< 148 nM (active)
same,GI50,UACC-62,18.4 nM (active)
same,GI50,UO-31,57.9 nM (active)
same,GI50,XF498,31.4 nM (active)

# Source: ChEMBL document CHEMBL1201862, “PubChem BioAssay data set” (2004)
